Consider 2 compounds from patent US8535706B2, “Bone implant” (Duquesne University of the Holy Spirit, priority 2010, dated 2013).

Data set [1] can be described thus: Heat stability of Melatonin adsorbed or linked to a substrate. It counts as physicochemical. An excerpt: In the practice of the invention, the coadministration, adsorption or linking of Melatonin to the bone graft substrate preferably involves Melatonin per se, although the use of the precursors or metabolites of Melatonin (including but not limited to 5-hydroxytryptophan (5OHTrp), 5-hydroxytryptamine (5HT), N-acetyl-5-hydroxytryptamine (NA5OHT) or 6-hydroxymelatonin (6OHMEL)) still falls within the scope of this invention albeit in a less preferred way.

Another data set concerns mesenchymal stem cells. The settings on record: cited from earlier work.

Consider `COc1ccc2[nH]cc(CCNC(C)=O)c2c1` [Melatonin, N-acetyl-5-methoxytryptamine], for which the stability to autoclaving result in data set [1] (adsorbed or linked to substrate, autoclaved such as at 180° C.) is given as “surviving the autoclaving process intact”. Also, in data set [1] (sintering temperatures used to make bone grafts and implants), the stability to sintering result is “cannot survive”.

On to arg-gly-asp [RDG peptide], for which the “spreading of the cells” value in the data set on mesenchymal stem cells (mesenchymal stem cells) is given as “does not enhance the spreading”. Besides, the “attachment of mesenchymal stem cells” value in the data set on mesenchymal stem cells (substrates: hydroxyapatite, titanium, polymer scaffolds) is recorded as “can increase the attachment”.
